Measurements from patent publication US6586604B2, “Tricyclic amine derivatives” (Daiichi Pharmaceutical Co., Ltd., priority 1996, dated 2003).
Values after ≈ are worked out from the molar mass of the structure shown.

Experiments:
Ps. Aeruginosa, 32104 = assay: Antimicrobial activity (MIC), standard method of the Japan Chemotherapeutic Society; assay type: cell-based; details: for MIC: Pseudomonas aeruginosa, read-out: minimum inhibitory concentration (MIC)
Description: (§1) The antimicrobial activity of the compounds according to the present invention was determined in accordance with the standard method specified by the Japan Chemotherapeutic Society.

S. epidermidis, 56500 = assay: as above; assay type: cell-based; details: for MIC: Staphylococcus epidermidis, read-out: minimum inhibitory concentration (MIC)
Description: as §1

E. coil, NIHJ = assay: as above; assay type: cell-based; details: for MIC: read-out: minimum inhibitory concentration (MIC)
Description: as §1

Ps. Aeruginosa, 32121 = assay: as above; assay type: cell-based; details: for MIC: Pseudomonas aeruginosa, read-out: minimum inhibitory concentration (MIC)
Description: as §1

Pr. vulgaris, 08601 = assay: as above; assay type: cell-based; details: for MIC: Proteus vulgaris, read-out: minimum inhibitory concentration (MIC)
Description: as §1

S. aureaus, 209P = assay: as above; assay type: cell-based; details: for MIC: read-out: minimum inhibitory concentration (MIC)
Description: as §1

S. pneumoniae, J24 = assay: as above; assay type: cell-based; details: for MIC: Streptococcus pneumoniae, read-out: minimum inhibitory concentration (MIC)
Description: as §1

[1] = system: Str. Faecalis, ATCC-19433; assay: as above; assay type: cell-based; details: for MIC: Enterococcus faecalis, ATCC19433, read-out: minimum inhibitory concentration (MIC)
Description: as §1

Ser. Marcescens, 10100 = assay: as above; assay type: cell-based; details: for MIC: Serratia marcescens, read-out: minimum inhibitory concentration (MIC)
Description: as §1

S. flexneli, 2A 5503 = assay: as above; assay type: cell-based; details: for minimum inhibitory concentration (MIC): S. flexneli, 2A 5503; for MIC: read-out: minimum inhibitory concentration (MIC)
Description: as §1

Pr. Mirabilis, IFO-3849 = assay: as above; assay type: cell-based; details: for MIC: Proteus mirabilis, IFO3849, read-out: minimum inhibitory concentration (MIC)
Description: as §1

[2] = system: Ps. Maltophilia, 11D-1275; assay: as above; assay type: cell-based; details: for MIC: Stenotrophomonas maltophilia, read-out: minimum inhibitory concentration (MIC)
Description: as §1

Str. Pyogenes, G-36 = assay: as above; assay type: cell-based; details: for MIC: Streptococcus pyogenes, read-out: minimum inhibitory concentration (MIC)
Description: as §1

S. aureus, 870307 = assay: as above; assay type: cell-based; details: for MIC: Staphylococcus aureus, read-out: minimum inhibitory concentration (MIC)
Description: as §1

| SMILES | minimum inhibitory concentration (MIC) (Ps. Aeruginosa, 32104) [mg/L] | minimum inhibitory concentration (MIC) (S. epidermidis, 56500) | minimum inhibitory concentration (MIC) (E. coil, NIHJ) | minimum inhibitory concentration (MIC) (Ps. Aeruginosa, 32121) [mg/L] | minimum inhibitory concentration (MIC) (Pr. vulgaris, 08601) | minimum inhibitory concentration (MIC) (S. aureaus, 209P) | minimum inhibitory concentration (MIC) (S. pneumoniae, J24) | minimum inhibitory concentration (MIC) [1] [mg/L] | minimum inhibitory concentration (MIC) (Ser. Marcescens, 10100) [mg/L] | minimum inhibitory concentration (MIC) (S. flexneli, 2A 5503) | minimum inhibitory concentration (MIC) (Pr. Mirabilis, IFO-3849) [mg/L] | minimum inhibitory concentration (MIC) [2] [mg/L] | minimum inhibitory concentration (MIC) (Str. Pyogenes, G-36) | minimum inhibitory concentration (MIC) (S. aureus, 870307) [mg/L] | melting point | MIC (Ps. Aeruginosa, 32104) [mg/L] | MIC (S. epidermidis, 56500) [mg/L] | MIC (E. coil, NIHJ) [mg/L] | MIC (Ps. Aeruginosa, 32121) [mg/L] | MIC (Pr. vulgaris, 08601) [mg/L] | also measured |
| --- | --- | --- | --- | --- | --- | --- | --- | --- | --- | --- | --- | --- | --- | --- | --- | --- | --- | --- | --- | --- | --- |
| C[C@H]1COc2c(N3C[C@H]4CC5C[C@]5(N)[C@H]4C3)c(F)cc3c(=O)c(C(=O)O)cn1c23 (stereo partly drawn) [Example 2, 10-{(1R,2R,6S)-1-Amino-4-azatricyclo[6.1.0.0^2,6]nonan-4-yl}-9-fluoro-2,3-dihydro-3-(S)-methyl-7-oxo-7H-pyrido[1.2.3-de][1,4]benzoxazine-6-carboxylic Acid] | 0.20 (≈ 0.501 µM) | 0.025 mg/L (≈ 0.0626 µM) | ≦0.003 μg/ml | 0.05 (≈ 0.125 µM) | 0.025 mg/L (≈ 0.0626 µM) | 0.006 mg/L (≈ 0.015 µM) | 0.013 mg/L (≈ 0.0325 µM) | 0.05 (≈ 0.125 µM) | 0.05 (≈ 0.125 µM) | 0.006 mg/L (≈ 0.015 µM) | 0.10 (≈ 0.25 µM) | 0.20 (≈ 0.501 µM) | 0.013 mg/L (≈ 0.0325 µM) | 0.20 (≈ 0.501 µM) |  |  |  |  |  |  |  |
| Cc1c(N2CC3CC4CC4(N)C3C2)c(F)c(N)c2c(=O)c(C(=O)O)cn([C@@H]3C[C@@H]3F)c12 (stereo partly drawn) [Example 6, 5-Amino-7-{1-amino-4-azatricyclo[6.1.0.0^2,6]nonan-4-yl}-6-fluoro-1-[2-(S)-fluoro-1-(R)-cyclopropyl]-1,4-dihydro-8-methyl-4-oxoquinoline-4-carboxylic Acid] | 0.10 (≈ 0.232 µM) | ≦0.003 μg/ml | ≦0.003 μg/ml | 0.025 (≈ 0.0581 µM) | 0.025 mg/L (≈ 0.0581 µM) | ≦0.003 μg/ml | ≦0.003 μg/ml | 0.013 (≈ 0.0302 µM) | 0.05 (≈ 0.116 µM) | ≦0.003 μg/ml | 0.025 (≈ 0.0581 µM) | 0.025 (≈ 0.0581 µM) | ≦0.003 μg/ml | 0.05 (≈ 0.116 µM) |  |  |  |  |  |  |  |
| Nc1c(F)c(N2CC3CC4CC4(N)C3C2)c(F)c2c1c(=O)c(C(=O)O)cn2C1CC1 (stereo not drawn) [Example 1, 5-Amino-7-(1-amino-4-azatricyclo[6.1.0.0^2,6]-nonan-4-yl)-1-cyclopropyl-6,8-difluoro-1,4-dihydro-4-oxoquinoline-3-carboxylic Acid] |  |  |  |  |  |  |  |  |  |  |  |  |  |  | 197 to 202 °C (dec.) | 0.2 (≈ 0.48 µM) | 0.006 (≈ 0.0144 µM) | ≤ 0.003 | 0.2 (≈ 0.48 µM) | 0.1 (≈ 0.24 µM) | MIC (S. aureaus, 209P): ≤ 0.003 mg/L; MIC (S. pneumoniae, J24): ≤ 0.003 mg/L; MIC [1]: 0.025 mg/L (≈ 0.06 µM); MIC (Ser. Marcescens, 10100): 0.1 mg/L (≈ 0.24 µM); MIC (S. flexneli, 2A 5503): ≤ 0.003 mg/L; MIC (Pr. Mirabilis, IFO-3849): 0.05 mg/L (≈ 0.12 µM); MIC [2]: 0.05 mg/L (≈ 0.12 µM); MIC (Str. Pyogenes, G-36): 0.006 mg/L (≈ 0.0144 µM); MIC (S. aureus, 870307): 0.1 mg/L (≈ 0.24 µM) |
| Cc1c(N2CC3CC4CC4(N)C3C2)c(F)cc2c(=O)c(C(=O)O)cn([C@@H]3C[C@@H]3F)c12 (stereo partly drawn) [Example 7, 7-(1-Amino-4-azabicyclo[6.1.0.0^2,6]nonan-4-yl)-6-fluoro-1-[2-(S)-fluoro-1-(R)-cyclopropyl]-8-methyl-1,4-dihydro-4-oxoquinoline-3-carboxylic Acid] | 0.05 (≈ 0.12 µM) | ≦0.003 μg/ml | ≦0.003 μg/ml | 0.025 (≈ 0.0602 µM) | ≦0.003 μg/ml | ≦0.003 μg/ml | ≦0.003 μg/ml | 0.013 (≈ 0.0313 µM) | 0.025 (≈ 0.0602 µM) | ≦0.003 μg/ml | 0.013 (≈ 0.0313 µM) | 0.025 (≈ 0.0602 µM) | ≦0.003 μg/ml | 0.013 (≈ 0.0313 µM) |  |  |  |  |  |  |  |
| COc1c(N2CC3CC4CC4(N)C3C2)c(F)cc2c(=O)c(C(=O)O)cn([C@@H]3C[C@@H]3F)c12 (stereo partly drawn) [Example 5, 7-{1-Amino-4-azatricyclo[6.1.0.0^2,6]nonan-4-yl}-6-fluoro-1-[2-(S)-fluoro-1-(R)-cyclopropyl]-1,4-dihydro-8-methoxy-4-oxoquinoline-3-carboxylic Acid] |  |  |  |  |  |  |  |  |  |  |  |  |  |  | 146 to 159 °C (dec.) | 0.1 (≈ 0.232 µM) | ≤ 0.003 | ≤ 0.003 | 0.05 (≈ 0.116 µM) | 0.006 (≈ 0.0139 µM) | MIC (S. aureaus, 209P): ≤ 0.003 mg/L; MIC (S. pneumoniae, J24): ≤ 0.003 mg/L; MIC [1]: 0.025 mg/L (≈ 0.0579 µM); MIC (Ser. Marcescens, 10100): 0.05 mg/L (≈ 0.116 µM); MIC (S. flexneli, 2A 5503): ≤ 0.003 mg/L; MIC (Pr. Mirabilis, IFO-3849): ≤ 0.003 mg/L; MIC [2]: 0.05 mg/L (≈ 0.116 µM); MIC (Str. Pyogenes, G-36): ≤ 0.003 mg/L; MIC (S. aureus, 870307): 0.013 mg/L (≈ 0.0301 µM) |
